In patent US8367714B2, “Cannabinoid receptor targeted agent” (Vanderbilt University, priority 2007, dated 2013):

Columns and labels:
CB2 receptor [1] = target: CB2 receptor (Homo sapiens, UniProt P34972); settings: cited from earlier work
CB2 receptor [2] = target: T1, CB2 receptor (Mus musculus, UniProt P47936); test: Fluorescence imaging of live DBT cells (2D4 CB2-expressing clone and wild type) and competition study; type: cell-based; settings: 5 μM, control for non-specific binding due to the dye (FIG. 2)
T1 construct: expressed in transfected cells; host or cells: DBT mouse astrocytoma cells, 2D4 clone; wild-type DBT cells lack CB2
Text: To test whether NIRmbc94 reliably binds to the CB2 receptor, we already had in place a system wherein the receptor was both absent and present.

Sequence of CB2 receptor (Homo sapiens, UniProt P34972) (P34972 whole entry): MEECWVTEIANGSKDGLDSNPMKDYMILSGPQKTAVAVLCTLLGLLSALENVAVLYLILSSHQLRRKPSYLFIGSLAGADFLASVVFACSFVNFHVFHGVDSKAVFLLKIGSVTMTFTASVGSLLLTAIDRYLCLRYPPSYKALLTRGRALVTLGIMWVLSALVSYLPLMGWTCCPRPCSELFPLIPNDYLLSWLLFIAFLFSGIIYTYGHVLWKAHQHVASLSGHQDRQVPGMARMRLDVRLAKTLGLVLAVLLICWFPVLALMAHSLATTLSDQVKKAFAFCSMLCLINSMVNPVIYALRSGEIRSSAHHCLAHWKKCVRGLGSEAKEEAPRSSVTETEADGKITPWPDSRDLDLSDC
T1 sequence (P47936 whole entry): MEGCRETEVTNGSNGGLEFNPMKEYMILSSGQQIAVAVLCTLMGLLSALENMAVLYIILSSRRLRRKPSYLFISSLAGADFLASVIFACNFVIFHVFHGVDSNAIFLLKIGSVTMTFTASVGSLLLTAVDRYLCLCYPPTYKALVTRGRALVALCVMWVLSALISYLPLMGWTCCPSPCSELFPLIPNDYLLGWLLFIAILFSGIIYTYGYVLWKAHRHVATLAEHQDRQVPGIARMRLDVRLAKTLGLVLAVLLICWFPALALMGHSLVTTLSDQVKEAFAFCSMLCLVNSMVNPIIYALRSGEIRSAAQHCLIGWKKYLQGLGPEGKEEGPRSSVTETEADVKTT

Compound	CB2/CB1 affinity ratio (CB2 receptor [1])	fluorescence of cells dosed with free dye (CB2 receptor [2])
SR144528	> 700	
COc1ccc(C(=O)c2c(C)n(CCN3CCOCC3)c3cc(I)ccc23)cc1 [AM630]	165	
CC1(C)C(=CC=C2CCCC(C=CC3=[N+](CCCCCC(=O)[O-])c4ccc(S(=O)(=O)[O-])cc4C3(C)C)=C2Oc2ccc(S(=O)(=O)[O-])cc2)N(CCCCS(=O)(=O)[O-])c2ccc(S(=O)(=O)[O-])cc21.[Na+].[Na+].[Na+].[Na+] [IRDye™ 800CW acid]		does not produce significant fluorescence
